Key:
αvβ1 = αvβ1 (Homo sapiens, UniProt P05556+P06756); test: Solid Phase Integrin αvβ1 Assay; format: binding
Method in brief: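 Wells coated with 1 µg/mL recombinant TGFb1-LAP and blocked with 2% BSA/TBST, 1 mM MnCl2; αvβ1 (added at 0.2 µg/mL) and compound incubated 90 min at room temperature. Bound integrin detected by streptavidin-HRP (20 min) and TMB after Mn-containing washes; IC50 by four-parameter logistic fit.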

αvβ6 = αvβ6 (Homo sapiens, UniProt P06756+P18564); test: Solid Phase Integrin αvβ6 Assay; format: binding
Sequence of αvβ6 (P06756 31-992 limits assumed): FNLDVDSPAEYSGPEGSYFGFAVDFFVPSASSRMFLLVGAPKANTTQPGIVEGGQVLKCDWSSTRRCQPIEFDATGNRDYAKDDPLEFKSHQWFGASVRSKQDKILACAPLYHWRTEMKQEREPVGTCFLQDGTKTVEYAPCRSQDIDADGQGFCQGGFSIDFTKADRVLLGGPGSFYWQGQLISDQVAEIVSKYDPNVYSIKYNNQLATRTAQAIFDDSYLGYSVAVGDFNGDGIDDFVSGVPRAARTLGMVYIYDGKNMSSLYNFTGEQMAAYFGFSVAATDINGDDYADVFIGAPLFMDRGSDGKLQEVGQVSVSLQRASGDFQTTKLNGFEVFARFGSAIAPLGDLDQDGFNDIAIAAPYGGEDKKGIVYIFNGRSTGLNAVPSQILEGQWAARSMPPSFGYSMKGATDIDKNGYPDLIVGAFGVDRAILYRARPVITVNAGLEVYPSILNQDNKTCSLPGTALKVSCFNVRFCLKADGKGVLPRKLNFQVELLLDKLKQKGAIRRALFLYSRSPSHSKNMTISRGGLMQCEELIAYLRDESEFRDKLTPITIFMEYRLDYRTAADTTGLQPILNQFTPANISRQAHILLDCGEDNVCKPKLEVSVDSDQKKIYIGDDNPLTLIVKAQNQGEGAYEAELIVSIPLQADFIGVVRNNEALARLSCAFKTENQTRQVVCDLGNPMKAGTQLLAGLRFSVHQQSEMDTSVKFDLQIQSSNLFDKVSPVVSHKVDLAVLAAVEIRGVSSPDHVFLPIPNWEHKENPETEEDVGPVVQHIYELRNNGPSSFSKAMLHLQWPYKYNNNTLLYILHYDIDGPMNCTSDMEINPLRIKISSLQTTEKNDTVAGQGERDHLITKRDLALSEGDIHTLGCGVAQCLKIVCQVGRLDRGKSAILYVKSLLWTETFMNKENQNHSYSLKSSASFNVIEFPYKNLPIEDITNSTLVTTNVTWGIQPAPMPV
Sequence of αvβ6 (P18564 22-707 limits assumed): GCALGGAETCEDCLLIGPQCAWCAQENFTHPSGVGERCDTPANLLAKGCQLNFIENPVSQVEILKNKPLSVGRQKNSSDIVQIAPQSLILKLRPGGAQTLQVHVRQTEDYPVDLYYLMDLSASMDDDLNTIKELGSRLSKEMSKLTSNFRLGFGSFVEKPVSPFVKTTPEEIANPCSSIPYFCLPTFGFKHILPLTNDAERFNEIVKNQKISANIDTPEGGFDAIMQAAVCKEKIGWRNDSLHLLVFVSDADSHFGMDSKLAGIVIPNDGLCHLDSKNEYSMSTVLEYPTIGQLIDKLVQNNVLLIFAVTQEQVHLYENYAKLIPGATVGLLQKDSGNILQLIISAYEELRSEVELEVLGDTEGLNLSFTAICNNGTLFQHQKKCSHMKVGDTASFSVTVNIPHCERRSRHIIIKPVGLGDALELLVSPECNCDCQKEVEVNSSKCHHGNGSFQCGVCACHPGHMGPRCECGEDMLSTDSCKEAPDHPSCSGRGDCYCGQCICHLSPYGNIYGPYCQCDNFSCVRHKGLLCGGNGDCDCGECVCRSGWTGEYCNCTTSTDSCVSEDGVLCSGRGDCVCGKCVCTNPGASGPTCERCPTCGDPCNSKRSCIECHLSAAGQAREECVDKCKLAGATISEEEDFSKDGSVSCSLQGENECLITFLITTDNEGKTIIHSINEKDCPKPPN
Method in brief: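 Plates coated with 1 μg/mL recombinant TGFb1-LAP; compounds and αvβ6 (0.2 μg/mL diluted stock) incubated 1 h at room temperature in 2% BSA/TBST with 1 mM MnCl2. Bound integrin detected with streptavidin-HRP and TMB; IC50 from four-parameter logistic fits.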

Sequence of αvβ1 (P06756 31-992 limits assumed): as the sequence (P06756 31-992 limits assumed) above
Sequence of αvβ1 (P05556 21-728 limits assumed): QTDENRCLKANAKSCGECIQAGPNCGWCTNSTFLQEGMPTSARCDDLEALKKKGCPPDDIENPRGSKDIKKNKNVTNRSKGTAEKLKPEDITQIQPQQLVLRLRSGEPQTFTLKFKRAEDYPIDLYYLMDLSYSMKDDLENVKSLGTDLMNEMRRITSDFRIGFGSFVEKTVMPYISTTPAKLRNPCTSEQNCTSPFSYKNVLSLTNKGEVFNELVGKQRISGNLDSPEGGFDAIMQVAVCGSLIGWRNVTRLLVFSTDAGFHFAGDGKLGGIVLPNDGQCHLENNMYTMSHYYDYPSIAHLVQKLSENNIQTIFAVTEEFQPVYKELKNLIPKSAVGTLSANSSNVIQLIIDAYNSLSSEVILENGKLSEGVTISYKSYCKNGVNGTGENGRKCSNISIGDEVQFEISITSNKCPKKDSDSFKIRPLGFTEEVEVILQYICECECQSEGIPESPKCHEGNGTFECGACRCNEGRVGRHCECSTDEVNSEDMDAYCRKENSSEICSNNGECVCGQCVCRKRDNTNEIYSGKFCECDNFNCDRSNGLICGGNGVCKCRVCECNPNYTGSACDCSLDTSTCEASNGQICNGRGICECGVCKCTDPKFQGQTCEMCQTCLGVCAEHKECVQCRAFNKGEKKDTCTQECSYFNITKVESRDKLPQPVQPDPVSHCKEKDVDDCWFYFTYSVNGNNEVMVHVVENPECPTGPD

IC50 (αvβ1) [nM]	IC50 (αvβ6) [nM]	SMILES
< 100	< 100	O=C(O)[C@@H](CCO[C@@H]1CCCN(CCCc2ccc3c(n2)NCCC3)C1)Nc1ncnc2sccc12 [Compound 498]
> 1000	< 100	O=C(O)[C@H](CCO[C@@H]1CCCN(CCCc2ccc3c(n2)NCCC3)C1)c1ccc(F)c(-c2ccccc2)c1 [Compound 499]
> 1000	100 to 1000	O=C(O)[C@H](CCO[C@@H]1CCCN(CCCc2ccc3c(n2)NCCC3)C1)c1cccc2c1cnn2CC1CC1 [Compound 500]
> 1000	100 to 1000	O=C(O)[C@H](CCO[C@@H]1CCCN(CCCc2ccc3c(n2)NCCC3)C1)c1cccc2nn(CC3CC3)cc12 [Compound 501]
< 100	< 100	Cc1csc2ncnc(N[C@H](CCO[C@@H]3CCCN(CCCc4ccc5c(n4)NCCC5)C3)C(=O)O)c12 [Compound 502]
> 1000	100 to 1000	O=C(O)[C@@H](CCO[C@@H]1CCCN(CCCc2ccc3c(n2)NCCC3)C1)Nc1ncnc2cc(F)c(F)cc12 [Compound 503]
< 100	< 100	O=C(O)C[C@@H](CO[C@@H]1CCCN(CCCc2ccc3c(n2)NCCC3)C1)c1cccc(N2CCCC2=O)c1 [Compound 504]
> 1000	> 1000	O=C(O)C(CCO[C@@H]1CCCN(CCCc2ccc3c(n2)NCCC3)C1)c1ccnc(-c2ccccc2)c1 (some centres unmarked) [Compound 505]
< 100	< 100	O=C(O)C[C@@H](CO[C@@H]1CCCN(CCCc2ccc3c(n2)NCCC3)C1)c1cccc([C@@H]2CCOC2)c1 [Compound 506]
< 100	< 100	O=C(O)C[C@@H](CO[C@@H]1CCCN(CCCc2ccc3c(n2)NCCC3)C1)c1cccc([C@H]2CCOC2)c1 [Compound 507]
< 100	< 100	O=C(O)C[C@@H](CO[C@@H]1CCCN(CCCc2ccc3c(n2)NCCC3)C1)c1cc(C2CC2)ccc1F [Compound 508]
< 100	< 100	Cc1c[s+]([O-])c2ncnc(N[C@@H](CCO[C@@H]3CCCN(CCCc4ccc5c(n4)NCCC5)C3)C(=O)O)c12 (some centres unmarked) [Compound 509]
> 1000	> 1000	Cc1c[s+]([O-])c2ncnc(N[C@H](CCO[C@@H]3CCCN(CCCc4ccc5c(n4)NCCC5)C3)C(=O)O)c12 (some centres unmarked) [Compound 510]
< 100	< 100	O=C(O)[C@@H](CCO[C@@H]1CCCN(CCCc2ccc3c(n2)NCCC3)C1)Nc1ncnc2ccsc12 [Compound 511]
> 1000	> 1000	O=C(N[C@H](CCO[C@@H]1CCCN(CCCc2ccc3c(n2)NCCC3)C1)C(=O)O)c1c(F)cc(N2CCOCC2)cc1F [Compound 512]
< 100	< 100	O=C(O)C[C@@H](CO[C@@H]1CCCN(CCCc2ccc3c(n2)NCCC3)C1)c1cncc(C2CC2)c1 [Compound 513]
< 100	< 100	O=C(O)C[C@@H](CO[C@@H]1CCCN(CCCc2ccc3c(n2)NCCC3)C1)c1ccnc(C2CC2)c1 [Compound 514]
100 to 1000	< 100	O=C(O)C[C@@H](CO[C@@H]1CCCN(CCCc2ccc3c(n2)NCCC3)C1)c1cccc(-n2cccn2)c1 [Compound 515]
< 100	< 100	O=C(O)[C@H](CCO[C@@H]1CCCN(CCCc2ccc3c(n2)NCCC3)C1)c1ccc(C2CC2)cc1 [Compound 516]
< 100	< 100	O=C(NC[C@H](C(=O)O)c1cccc(-c2ccncc2)c1)[C@@H]1CCCN(CCCc2ccc3c(n2)NCCC3)C1 [Compound 517]
< 100	< 100	O=C(NC[C@H](C(=O)O)c1cccc(-c2cccc(C(F)(F)F)c2)c1)[C@@H]1CCCN(CCCc2ccc3c(n2)NCCC3)C1 [Compound 518]
< 100	< 100	O=C(O)C[C@@H](CO[C@@H]1CCCN(CCCc2ccc3c(n2)NCCC3)C1)c1cc(F)cc(C2CC2)c1 [Compound 519]
< 100	100 to 1000	O=C(O)CC(CC(=O)N[C@H]1CCN(C(=O)CCCc2ccc3c(n2)NCCC3)C1)c1ccccc1 (some centres unmarked) [Compound 520]
< 100	100 to 1000	O=C(O)C[C@@H](CC(=O)N[C@H]1CCN(C(=O)CCCc2ccc3c(n2)NCCC3)C1)c1ccccc1 [Compound 521]
< 100	100 to 1000	O=C(O)C[C@H](CC(=O)N[C@H]1CCN(C(=O)CCCc2ccc3c(n2)NCCC3)C1)c1ccccc1 [Compound 522]
100 to 1000	< 100	O=C(O)C[C@H](NC(=O)[C@H]1CCCN(CCCc2ccc3c(n2)NCCC3)C1)c1ccccc1 [Compound 523]
< 100	100 to 1000	O=C(O)CC(CC(=O)N[C@@H]1CCN(C(=O)CCCc2ccc3c(n2)NCCC3)C1)c1ccccc1 (some centres unmarked) [Compound 524]
< 100	100 to 1000	O=C(O)CC(CC(=O)N[C@H]1CCN(CCCCc2ccc3c(n2)NCCC3)C1)c1ccccc1 (some centres unmarked) [Compound 525]

IC50 (αvβ1) [nM]	IC50 (αvβ6) [nM]	SMILES
100 to 1000	100 to 1000	CN(CC1(C)CCCCC1)[C@@H](CNC(=O)[C@@H]1CCCN(CCCc2ccc3c(n2)NCCC3)C1)C(=O)O [Compound 527]
> 1000	> 1000	O=C(O)C[C@H](OC[C@@H]1CCCN(CCCc2ccc3c(n2)NCCC3)C1)c1cccc(C2CC2)c1 [Compound 528]
100 to 1000	100 to 1000	O=C(O)C[C@H](NC[C@@H]1CCCN(CCCc2ccc3c(n2)NCCC3)C1)c1cccc(C2CC2)c1 [Compound 529]
> 1000	> 1000	CN(C[C@@H]1CCCN(CCCc2ccc3c(n2)NCCC3)C1)[C@@H](CC(=O)O)c1cccc(C2CC2)c1 [Compound 530]
> 1000	> 1000	O=C(O)C[C@H](NC[C@@H]1CCCN(CCCc2ccc3c(n2)NCCC3)C1)c1cccc(Br)c1 [Compound 531]
> 1000	> 1000	CN(C[C@@H]1CCCN(CCCc2ccc3c(n2)NCCC3)C1)[C@@H](CC(=O)O)c1cccc(Br)c1 [Compound 532]
< 100	< 100	O=C(O)C[C@H](NC(=O)[C@@H]1CCCN(CCCc2ccc3c(n2)NCCC3)C1)c1cccc([C@@H]2CCOC2)c1 [Compound 533]
< 100	< 100	O=C(O)C[C@H](NC(=O)[C@@H]1CCCN(CCCc2ccc3c(n2)NCCC3)C1)c1cccc([C@H]2CCOC2)c1 [Compound 534]
< 100	< 100	O=C(O)C[C@H](NC(=O)[C@@H]1CCCN(CCCc2ccc3c(n2)NCCC3)C1)c1cccc(OC2COC2)c1 [Compound 535]
< 100	< 100	O=C(O)C[C@H](NC(=O)[C@@H]1CCCN(CCCc2ccc3c(n2)NCCC3)C1)c1cccc(-n2cccc2)c1 [Compound 536]
< 100	< 100	COC(C)(C)C1Cc2c(cccc2C(CNC(=O)[C@@H]2CCCN(CCCc3ccc4c(n3)NCCC4)C2)C(=O)O)CO1 (some centres unmarked) [Compound 538]
< 100	< 100	O=C(O)C[C@H](NC(=O)[C@@H]1CCCN(CCCc2ccc3c(n2)NCCC3)C1)c1cnc2ccccc2n1 [Compound 539]
100 to 1000	100 to 1000	O=C(O)C[C@H](NC(=O)[C@@H]1CCCN(CCCc2ccc3c(n2)NCCC3)C1)c1cnc2ccccc2c1 [Compound 540]
< 100	< 100	O=C(O)C[C@H](NC(=O)[C@@H]1CCCN(CCCc2ccc3c(n2)NCCC3)C1)c1ccc2c(c1)C1(CC2)CC1 [Compound 541]
100 to 1000	< 100	CN1CCc2cc(S(=O)(=O)N[C@@H](CNC(=O)[C@@H]3CCCN(CCCc4ccc5c(n4)NCCC5)C3)C(=O)O)ccc21 [Compound 542]
< 100	< 100	O=C(NC[C@H](NS(=O)(=O)c1cccc2c1CCC2)C(=O)O)[C@@H]1CCCN(CCCc2ccc3c(n2)NCCC3)C1 [Compound 543]
< 100	< 100	O=C(N[C@@H](CNC(=O)[C@@H]1CCCN(CCCc2ccc3c(n2)NCCC3)C1)C(=O)O)c1ccccc1 [Compound 544]
< 100	< 100	CC(C)(C(=O)N[C@@H](CNC(=O)[C@@H]1CCCN(CCCc2ccc3c(n2)NCCC3)C1)C(=O)O)c1ccccc1 [Compound 546]
< 100	< 100	O=C(NC[C@H](NC(=O)C1(c2ccccc2)CC1)C(=O)O)[C@@H]1CCCN(CCCc2ccc3c(n2)NCCC3)C1 [Compound 547]
< 100	< 100	O=C(N[C@@H](CNC(=O)[C@@H]1CCCN(CCCc2ccc3c(n2)NCCC3)C1)C(=O)O)c1cccc2c1CCC2 [Compound 549]
100 to 1000	< 100	C[C@@H]1CCN(CCCc2ccc3c(n2)NCCC3)C[C@@H]1C(=O)N[C@@H](CC(=O)O)c1ccccc1 [Compound 551]
100 to 1000	100 to 1000	C[C@H]1C[C@@H](C(=O)N[C@@H](CC(=O)O)c2ccccc2)CN(CCCc2ccc3c(n2)NCCC3)C1 [Compound 552]
100 to 1000	100 to 1000	C[C@@H]1C[C@@H](C(=O)N[C@@H](CC(=O)O)c2ccccc2)CN(CCCc2ccc3c(n2)NCCC3)C1 [Compound 553]
> 1000	100 to 1000	C[C@H]1CC[C@@H](C(=O)N[C@@H](CC(=O)O)c2ccccc2)CN1CCCc1ccc2c(n1)NCCC2 [Compound 554]
100 to 1000	100 to 1000	O=C(O)C[C@H](NC(=O)[C@]1(F)CCCN(CCCc2ccc3c(n2)NCCC3)C1)c1ccccc1 [Compound 555]
100 to 1000	100 to 1000	O=C(O)C[C@H](NC(=O)[C@@H]1CCCN(CCCc2ccc3c(n2)NCCC3)C1)c1ccccc1C1CC1 [Compound 556]
> 1000	100 to 1000	O=C(O)C[C@H](NC(=O)[C@@H]1CCCN(CCCc2ccc3c(n2)NCCC3)C1)c1ccc(C2CC2)cc1 [Compound 557]
